Results from PubChem BioAssay AID328 (DTP/NCI, 2004).
Inconclusive results and toxic doses are left out. Rule for the calls: active = survival T/C of 150% or more; inactive = T/C below 125% in these data.

System: BDF1 mice, P388 leukemia ip, median survival T/C
Test: NCI In Vivo Anticancer Drug Screen. Data for tumor model P388 Leukemia (intraperitoneal) in B6D2F1 (BDF1) mice
Settings: endpoint: median survival time, higher = longer survival
Summary of the method: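 Compound-treated tumour-bearing mice were compared with vehicle-treated controls. Survival was recorded, and the value is the treated-group measurement divided by the control-group measurement (T/C).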

[1] = dose: 12.5 mg/kg/injection, schedule: Q01DX009 (ip), vehicle: saline
[2] = dose: 25.0 mg/kg/injection, schedule: Q01DX009 (ip), vehicle: saline
[3] = dose: 50.0 mg/kg/injection, schedule: Q01DX009 (ip), vehicle: saline
[4] = dose: 50.0 mg/kg/injection, schedule: Q01DX009 (ip), vehicle: saline with Tween-80
[5] = dose: 100.0 mg/kg/injection, schedule: Q01DX009 (ip), vehicle: saline with Tween-80
[6] = dose: 200.0 mg/kg/injection, schedule: Q01DX009 (ip), vehicle: saline with Tween-80

Measured: T/C

COc1ccc(CN(C)CCN(C)CCN(C)Cc2ccc(OC)cc2)cc1
inactive: dose: 3.12 mg/kg/injection, schedule: Q01DX009 (ip), vehicle: water 92 % of control | dose: 6.25 mg/kg/injection, schedule: Q01DX009 (ip), vehicle: saline 102 % of control | dose: 6.25 mg/kg/injection, schedule: Q01DX009 (ip), vehicle: water 108 % of control | [1] 103 % of control | dose: 12.5 mg/kg/injection, schedule: Q01DX009 (ip), vehicle: water 99 % of control | [2] 93 % of control | dose: 25.0 mg/kg/injection, schedule: Q01DX009 (ip), vehicle: water 100 % of control | dose: 25.0 mg/kg/injection, schedule: Q04DX003 (ip), vehicle: water 90 % of control | [3] 86 % of control | dose: 50.0 mg/kg/injection, schedule: Q01DX009 (ip), vehicle: water 106 % of control | dose: 50.0 mg/kg/injection, schedule: Q04DX003 (ip), vehicle: water 99 % of control | dose: 100.0 mg/kg/injection, schedule: Q04DX003 (ip), vehicle: water 96 % of control

CC12C=CC(=O)C=C1CCC1C2C(O)CC2(C)C1CCC2(O)C(=O)COC(=O)Cc1ccc(N(CCCl)CCCl)cc1 (configuration not stated)
inactive: dose: 3.5 mg/kg/injection, schedule: Q01DX009 (ip), vehicle: saline 97 % of control | dose: 7.0 mg/kg/injection, schedule: Q01DX009 (ip), vehicle: saline 97 % of control | dose: 14.0 mg/kg/injection, schedule: Q01DX009 (ip), vehicle: saline 118 % of control

CC(C)CNC(=S)/N=C1\CCN(c2ccccc2)N1
inactive: dose: 4.5 mg/kg/injection, schedule: Q01DX009 (ip), vehicle: saline with Tween-80 118 % of control | dose: 9.0 mg/kg/injection, schedule: Q01DX009 (ip), vehicle: saline with Tween-80 86 % of control | dose: 18.0 mg/kg/injection, schedule: Q01DX009 (ip), vehicle: saline with Tween-80 92 % of control

CC(=O)OCC1OC(N=[N+]=[N-])C(OC(C)=O)C(OC(C)=O)C1OC(C)=O (configuration not stated)
inactive: [4] 93 % of control | [5] 108 % of control | [6] 99 % of control

OCC1C2CCC(C2)C1CO (configuration not stated)
inactive: [1] 105 % of control | [2] 110 % of control | [3] 115 % of control | dose: 75.0 mg/kg/injection, schedule: Q01DX009 (ip), vehicle: saline 115 % of control | dose: 115.0 mg/kg/injection, schedule: Q01DX009 (ip), vehicle: saline 95 % of control

CN(C)C(CCc1ccccc1)C(=O)O (configuration not stated)
inactive: dose: 100.0 mg/kg/injection, schedule: Q04DX003 (ip), vehicle: saline 100 % of control | dose: 200.0 mg/kg/injection, schedule: Q04DX003 (ip), vehicle: saline 104 % of control

COC(=O)C1SCc2ccccc2C1=O (configuration not stated)
inactive: dose: 100.0 mg/kg/injection, schedule: Q04DX003 (ip), vehicle: saline with Tween-80 104 % of control | dose: 200.0 mg/kg/injection, schedule: Q04DX003 (ip), vehicle: saline with Tween-80 105 % of control | dose: 400.0 mg/kg/injection, schedule: Q04DX003 (ip), vehicle: saline with Tween-80 105 % of control

Cc1ccc(C(O)(CS(C)=O)c2ccco2)cc1 (configuration not stated)
inactive: dose: 50.0 mg/kg/injection, schedule: Q01DX009 (ip), vehicle: saline + alcohol 98 % of control | dose: 100.0 mg/kg/injection, schedule: Q01DX009 (ip), vehicle: saline + alcohol 90 % of control

CC(O)c1nc(N)nc(N)c1-c1ccc(Cl)cc1 (configuration not stated)
inactive: dose: 100.0 mg/kg/injection, schedule: Q01DX001 (ip), vehicle: saline with Tween-80 106 % of control | dose: 200.0 mg/kg/injection, schedule: Q01DX001 (ip), vehicle: saline with Tween-80 100 % of control

CC(=O)C(C(C)=O)c1ccccc1.CC(=O)C(C(C)=O)c1ccccc1.[Ni]
inactive: dose: 3.0 mg/kg/injection, schedule: Q01DX009 (ip), vehicle: Klucel (hydroxypropylcellulose) (HPC) 110 % of control | dose: 6.0 mg/kg/injection, schedule: Q01DX009 (ip), vehicle: Klucel (hydroxypropylcellulose) (HPC) 100 % of control | dose: 6.0 mg/kg/injection, schedule: Q04DX003 (ip), vehicle: other 100 % of control | dose: 12.0 mg/kg/injection, schedule: Q01DX009 (ip), vehicle: Klucel (hydroxypropylcellulose) (HPC) 100 % of control | dose: 12.0 mg/kg/injection, schedule: Q04DX003 (ip), vehicle: other 95 % of control | dose: 25.0 mg/kg/injection, schedule: Q04DX003 (ip), vehicle: other 100 % of control

Cc1ncc(CSc2ccccc2N)c(CO)c1O
inactive: [4] 91 % of control | [5] 92 % of control | [6] 94 % of control

COc1ccc(C(=O)CC(C#N)c2ccc(OC)c(OC)c2)cc1OC (configuration not stated)
inactive: [5] 100 % of control | [6] 100 % of control | dose: 400.0 mg/kg/injection, schedule: Q01DX009 (ip), vehicle: saline with Tween-80 95 % of control
